EC50 data for three molecules are collected here from ChEMBL document CHEMBL3886324, “Pyrimidinylpiperidinyloxypyridone analogues as GPR119 modulators” (2015).

This experiment in a line: Tet-Inducible cAMP Assay: A human-mouse chimeric GPR119 expression construct encoding 3 copies of the FLAG epitope tag, the first 198 amino acids of human GPR119 and the C-terminal 137 amino acids of the mouse receptor was cloned into a tetracycline inducible vector pcDNA5/FRT/TO (Invitrogen #V6520-20), which includes a hygromycin-resistance marker. Tightly controlled receptor expression was achieved by stable integration of this construct into the genome of a specific host cell line, Flp-In-T-Rex-HEK293, expressing the tetracycline repressor (Invitrogen). Once a stable hygromycin-resistant cell line was generated, the cells were maintained at 37° C. in a humidified 5% CO2 atmosphere in culture medium consisting of Dulbecco's modified Eagle's medium (DMEM; Invitrogen #11960) supplemented with 2 mM L-glutamine, 10% fetal bovine serum, 200 μg/ml hygromycin B, and 15 μg/ml blasticidin.
By EC50 is commonly meant the concentration needed to bring the measured effect to its halfway point. As for `Cc1nc(-n2cc(Cl)c(OC3CCN(c4ncc(Cl)cn4)CC3)cc2=O)ccc1N1CCC(O)C1=O` (stereo not drawn), the concentration for a half-maximal effect (EC50) turned out to be 2 nM.
The value for `Cc1nc(-n2cc(Cl)c(OC3CCN(c4ncc(Cl)cn4)CC3)cc2=O)ccc1N1CC[C@@H](O)C1=O` was 3 nM; that for `Cc1nc(-n2ccc(OC3CCN(c4ncc(Cl)cn4)CC3)cc2=O)ccc1N1CCC(O)C1=O` (stereo not drawn) was 10 nM.
